Results: patent US7960383B2, “Pyridazin-3(2H)-one derivatives and their use as PDE4 inhibitors” (Laboratorios Almirall SA, priority 2004, dated 2011)

Biological target: PDE4 (Homo sapiens, UniProt Q07343)
Test: PDE4 Assay Procedure ([3H]-cAMP SPA)
Assay type: biochemical
Settings: read-out: HPDE4B or IC50 PDE4
Protocol: Compounds to be tested were resuspended in DMSO at a stock concentration of 1 mM. The compounds were tested at different concentrations varying from 10 pM to 10 μM to calculate an IC50. These dilutions were done in 96-well plates. In some cases, plates containing diluted compounds were frozen before being assayed. In these cases, the plates were thawed at room temperature and stirred for 15 minutes.
Ten microliters of the diluted compounds were poured into a “low binding” assay plate. Eighty microliters of reaction mixture containing 50 mM Tris pH 7.5, 8.3 mM MgCl2, 1.7 mM EGTA, and 15 nM [3H]-cAMP were added to each well. The reaction was initiated by adding ten microliters of a solution containing PDE4. The plate was then incubated under stirring for 1 hour at room temperature. After incubation the reaction was stopped with 50 microlitres of SPA beads, and the reaction was allowed to incubate for another 20 minutes at room temperature before measuring radioactivity using standard instrumentation.
The reaction mixture was prepared by adding 90 ml of H2O to 10 ml of 10× assay buffer (500 mM Tris pH 7.5, 83 mM MgCl2, 17 mM EGTA), and 40 microlitres 1 μCi/μL [3H]-cAMP. SPA beads solution was prepared by adding 500 mg to […] H2O for a final concentration of 20 mg/ml beads and 18 mM zinc sulphate.

Sequence of PDE4 (Q07343 whole entry): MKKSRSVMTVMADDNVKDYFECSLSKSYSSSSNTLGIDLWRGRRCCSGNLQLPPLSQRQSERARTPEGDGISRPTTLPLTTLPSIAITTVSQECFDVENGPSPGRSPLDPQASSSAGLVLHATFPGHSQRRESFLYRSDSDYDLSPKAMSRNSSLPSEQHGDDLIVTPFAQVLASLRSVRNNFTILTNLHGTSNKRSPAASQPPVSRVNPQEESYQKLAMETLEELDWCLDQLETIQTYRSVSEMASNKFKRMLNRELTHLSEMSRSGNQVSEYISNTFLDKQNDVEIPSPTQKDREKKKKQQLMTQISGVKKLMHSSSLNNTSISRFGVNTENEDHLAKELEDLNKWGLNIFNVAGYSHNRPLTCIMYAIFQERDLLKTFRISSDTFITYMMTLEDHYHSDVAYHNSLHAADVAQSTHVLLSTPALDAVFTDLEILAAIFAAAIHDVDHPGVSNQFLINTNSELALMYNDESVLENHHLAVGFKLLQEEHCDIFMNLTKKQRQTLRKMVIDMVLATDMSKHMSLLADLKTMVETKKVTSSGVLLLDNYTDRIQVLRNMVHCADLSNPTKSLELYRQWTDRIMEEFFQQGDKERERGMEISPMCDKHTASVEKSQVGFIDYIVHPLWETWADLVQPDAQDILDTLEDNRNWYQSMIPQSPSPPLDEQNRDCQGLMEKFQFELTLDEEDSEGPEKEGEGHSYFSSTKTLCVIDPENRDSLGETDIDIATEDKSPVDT

Going from `CCn1nc(C(=O)OCc2ccccc2)cc(Nc2cnccc2C)c1=O` [Example 1, Benzyl 1-ethyl-5-(4-methylpyridin-3-ylamino)-6-oxo-1,6-dihydropyridazine-3-carboxylate] to `CCn1nc(C(=O)OCc2ccsc2)cc(Nc2cnccc2C)c1=O` [Example 10, Thiophen-3-ylmethyl 1-ethyl-5-(4-methylpyridin-3-ylamino)-6-oxo-1,6-dihydropyridazine-3-carboxylate], the IC50 falls from 52 nM to 19 nM (2.7-fold). The second is the more potent here.

Compared with `CCn1nc(C(=O)OCc2cccc(OC)c2)cc(Nc2cncc3ccccc23)c1=O` [Example 11, 3-Methoxybenzyl 1-ethyl-5-(isoquinolin-4-ylamino)-6-oxo-1,6-dihydropyridazine-3-carboxylate], `CCn1nc(C(=O)OCc2cccc(Cl)c2)cc(Nc2cncc3ccccc23)c1=O` [Example 13, 3-Chlorobenzyl 1-ethyl-5-(isoquinolin-4-ylamino)-6-oxo-1,6-dihydropyridazine-3-carboxylate] is 1.8-fold higher in IC50: 1.6 nM for the first, 2.9 nM for the second.

Compared with `CCn1nc(C(=O)OC(C)c2ccccc2)cc(Nc2cncc3ccccc23)c1=O` (stereo not drawn) [Example 14, 1-Phenylethyl 1-ethyl-5-(isoquinolin-4-ylamino)-6-oxo-1,6-dihydropyridazine-3-carboxylate], `CCn1nc(C(=O)OCCOc2ccccc2)cc(Nc2cncc3ccccc23)c1=O` [Example 49, 2-Phenoxyethyl 1-ethyl-5-(isoquinolin-4-ylamino)-6-oxo-1,6-dihydropyridazine-3-carboxylate] is 3.3-fold lower in IC50: 2.4 nM for the first, 0.73 nM for the second. The second is the more potent here.

`CCOC(=O)c1nn(CC)c(=O)c(Nc2cncc3ccccc23)c1C(C)=O` [Example 23, Ethyl 4-acetyl-1-ethyl-5-(isoquinolin-4-ylamino)-6-oxo-1,6-dihydropyridazine-3-carboxylate] and `CCn1nc(C(=O)OC(C)C)c(C(C)=O)c(Nc2cncc3ccccc23)c1=O` [Example 27, Isopropyl 4-acetyl-1-ethyl-5-(isoquinolin-4-ylamino)-6-oxo-1,6-dihydropyridazine-3-carboxylate] are within 1.5-fold of each other in IC50: 14 nM for the first, 16 nM for the second.

First: CCn1nc(C(=O)OCc2ccccc2)c(C(C)=O)c(Nc2cccnc2)c1=O [Example 26, Benzyl 4-acetyl-1-ethyl-6-oxo-5-(pyridin-3-ylamino)-1,6-dihydropyridazine-3-carboxylate]
Second: CCn1nc(C(=O)OCc2ccccc2)c(C(C)=O)c(Nc2cncc3ccccc23)c1=O [Example 33, Benzyl 4-acetyl-1-ethyl-5-(isoquinolin-4-ylamino)-6-oxo-1,6-dihydropyridazine-3-carboxylate]
The IC50 of the first is 2.7-fold higher: 5.1 nM for the first, 1.9 nM for the second.

First: CCn1nc(C(=O)OC2CCC2)c(C(C)=O)c(Nc2cncc3ccccc23)c1=O [Example 36, Cyclobutyl 4-acetyl-1-ethyl-5-(isoquinolin-4-ylamino)-6-oxo-1,6-dihydropyridazine-3-carboxylate]
Second: CCCCCCCCOC(=O)c1nn(CC)c(=O)c(Nc2cncc3ccccc23)c1C(C)=O [Example 71, Octyl 4-acetyl-1-ethyl-5-(isoquinolin-4-ylamino)-6-oxo-1,6-dihydropyridazine-3-carboxylate]
The IC50 of the first is 8.8-fold higher: 44 nM for the first, 5 nM for the second.

Compared with `CCn1nc(C(=O)OC(C)Cc2ccccc2)c(C(C)=O)c(Nc2cncc3ccccc23)c1=O` (stereo not drawn) [Example 38, 1-Methyl-2-phenylethyl 4-acetyl-1-ethyl-5-(isoquinolin-4-ylamino)-6-oxo-1,6-dihydropyridazine-3-carboxylate], `CCn1nc(C(=O)OC(C)c2ccccc2)c(C(C)=O)c(Nc2cncc3ccccc23)c1=O` (stereo not drawn) [Example 39, 1-Phenylethyl 4-acetyl-1-ethyl-5-(isoquinolin-4-ylamino)-6-oxo-1,6-dihydropyridazine-3-carboxylate] is 8.7-fold lower in IC50: 13 nM for the first, 1.5 nM for the second.

Going from `CCn1nc(C(=O)OC(C)c2ccccc2)c(C(C)=O)c(Nc2cnccc2C)c1=O` (stereo not drawn) [Example 41, 1-Phenylethyl 4-acetyl-1-ethyl-5-[(4-methylpyridin-3-yl)amino]-6-oxo-1,6-dihydropyridazine-3-carboxylate] to `CCn1nc(C(=O)OCc2cccc(Cl)c2)c(C(C)=O)c(Nc2cncc3ccccc23)c1=O` [Example 69, 3-Chlorobenzyl 4-acetyl-1-ethyl-5-(isoquinolin-4-ylamino)-6-oxo-1,6-dihydropyridazine-3-carboxylate], the IC50 falls from 69 nM to 0.49 nM (140-fold). The second is the more potent here.

`CCn1nc(C(=O)OCc2ccc(Br)cc2)cc(Nc2cncc3ccccc23)c1=O` [Example 51, 4-Bromobenzyl 1-ethyl-5-(isoquinolin-4-ylamino)-6-oxo-1,6-dihydropyridazine-3-carboxylate] and `CCn1nc(C(=O)OCOC(=O)C(C)(C)CC)cc(Nc2cncc3ccccc23)c1=O` [Example 66, 2,2-Dimethylbutyryloxymethyl 1-ethyl-5-(isoquinolin-4-ylamino)-6-oxo-1,6-dihydropyridazine-3-carboxylate] are within 1.5-fold of each other in IC50: 0.48 nM for the first, 0.36 nM for the second.
